Reference: patent US9822069B2, “Urea derivative or pharmacologically acceptable salt thereof” (KYORIN PHARMACEUTICAL CO. LTD., priority 2013, dated 2017)

Target: T1, human FPRL1 (Homo sapiens, UniProt P25090)
T1 construct: expressed in transfected cells; host or cells: HEK293 (JCRB9068, NIBIO), transient transfection with pCMV-script vectors using Lipofectamine 2000
T1 sequence (P25090 1-351): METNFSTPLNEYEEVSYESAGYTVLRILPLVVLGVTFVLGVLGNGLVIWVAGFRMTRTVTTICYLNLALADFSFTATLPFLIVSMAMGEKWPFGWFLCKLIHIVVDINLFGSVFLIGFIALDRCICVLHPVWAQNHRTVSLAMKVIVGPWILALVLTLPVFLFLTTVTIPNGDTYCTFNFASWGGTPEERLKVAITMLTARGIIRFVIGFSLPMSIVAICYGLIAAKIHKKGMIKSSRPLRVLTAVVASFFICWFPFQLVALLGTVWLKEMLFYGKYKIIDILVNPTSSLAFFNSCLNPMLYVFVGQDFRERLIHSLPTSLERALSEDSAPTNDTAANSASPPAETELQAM
Assay: Measurement test of agonist activity on human FPRL1 (test of calcium mobilization in cell, HEK293 with human FPRL1 and Gα15 expression vectors)
Type: cell-based
Settings: calcium mobilization in HEK293 cells with human FPRL1 and Gα15 expression vectors
Method in brief: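 HEK293 transiently co-transfected with human FPRL1 and Gα15, plated 24 h before assay, loaded with Fluo-4 NW dye plus probenecid. Compounds in eight 10-fold dilutions (DMSO stocks 10^−2 to 10^−9 M, then diluted 100-fold in assay buffer); calcium mobilization read on Flexstation for EC50.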

EC50 [nM]	Structure (SMILES)
0.27	COc1cc(F)c([C@@H]2CN/C(=N\OCCO)[C@H]2NC(=O)Nc2cc3ccccc3s2)c(F)c1 (single isomer, unassigned) [EXAMPLE 32-15, (−)-1-(benzo[b]thiophen-2-yl)-3-{(3S*,4R*,Z)-4-(2,6-difluoro-4-methoxyphenyl)-2-[(2-hydroxyethoxy)imino]pyrrolidin-3-yl}urea]
0.54	COc1cc(F)c([C@@H]2CN=C(Nc3ccn(C)n3)[C@H]2NC(=O)Nc2ccc(F)cc2)c(F)c1 (single isomer, unassigned) [EXAMPLE 32-16, (−)-1-{(3R*,4S*)-3-(2,6-difluoro-4-methoxyphenyl)-5-[(1-methyl-1H-pyrazol-3-yl)amino]-3,4-dihydro-2H-pyrrol-4-yl}-3-(4-fluorophenyl)urea]
0.57	COc1cc(F)c([C@@H]2CN/C(=N\N3CCOCC3)[C@H]2NC(=O)Nc2ccc(F)cc2)c(F)c1 (single isomer, unassigned) [EXAMPLE 32-17, (−)-1-[(3S*,4R*,Z)-4-(2,6-difluoro-4-methoxyphenyl)-2-(morpholinoimino)pyrrolidin-3-yl]-3-(4-fluorophenyl)urea]
0.13	O=C(Nc1ccc(F)cc1)N[C@@H]1/C(=N/OCCO)NC[C@H]1c1cc2c(cc1F)OCC2 (single isomer, unassigned) [EXAMPLE 32-19, (−)-1-((3S*,4R*,Z)-4-(6-fluoro-2,3-dihydrobenzofuran-5-yl)-2-[(2-hydroxyethoxy)imino]pyrrolidin-3-yl)-3-(4-fluorophenyl)urea]
1.14	COc1ccc([C@@H]2CN/C(=N\O)[C@H]2NC(=O)Nc2ccc(F)cc2)cc1 (single isomer, unassigned) [EXAMPLE 33-1, (−)-1-(4-Fluorophenyl)-3-[(3S*,4R*,Z)-2-(2-hydroxyimino)-4-(4-methoxyphenyl)pyrrolidin-3-yl]urea]
0.03	COc1cc(F)c([C@@H]2CN/C(=N\O)[C@H]2NC(=O)Nc2ccc(F)cc2)c(F)c1 (single isomer, unassigned) [EXAMPLE 33-2, (−)-1-((3S*,4R*,Z)-4-(2,6-Difluoro-4-methoxyphenyl)-2-(hydroxyimino)pyrrolidin-3-yl)-3-(4-fluorophenyl)urea]

The remaining lines, values behind:

Structure (SMILES)	EC50 [nM]
COc1ccc([C@@H]2CN(CCO)C(=O)[C@H]2NC(=O)Nc2ccc(Cl)cc2)cc1 (single isomer, unassigned) [Example 15-1A, (−)-trans-1-(4-Chlorophenyl)-3-[1-(2-hydroxyethyl)-4-(4-methoxyphenyl)-2-oxopyrrolidin-3-yl]urea]	0.01
COc1ccc([C@@H]2CN(CCO)C(=O)[C@H]2NC(=O)Nc2ccc(Cl)cc2)cc1 (single isomer, unassigned) [Example 15-1B, (+)-trans-1-(4-Chlorophenyl)-3-[1-(2-hydroxyethyl)-4-(4-methoxyphenyl)-2-oxopyrrolidin-3-yl]urea]	1.99
COc1ccc(C2CNC(=O)C2NC(=O)Nc2ccc(Cl)cc2)cc1 (single isomer, unassigned; (+)) [Example 12-12, (+)-1-(4-chlorophenyl)-3-[4-(4-methoxyphenyl)-2-oxopyrrolidin-3-yl]urea]	0.9
COc1ccc(C2CNC(=O)C2NC(=O)Nc2ccc(Cl)cc2)cc1 (single isomer, unassigned; (-)) [Example 12-11, (−)-1-(4-chlorophenyl)-3-[4-(4-methoxyphenyl)-2-oxopyrrolidin-3-yl]urea]	4.57
COc1ccc([C@@H]2CN(C(C)C(=O)O)C(=O)[C@H]2NC(=O)Nc2ccc(F)cc2)cc1 (single isomer, unassigned; isomer a) [Example 18-1, (−)-2-{(3S*,4R*)-3-[3-(4-Fluorophenyl)ureido]-4-(4-methoxyphenyl)-2-oxopyrrolidin-1-yl}propionic acid (isomer A)]	2.36
CNC(=O)C(C)N1C[C@@H](c2ccc(OC)cc2)[C@H](NC(=O)Nc2ccc(F)cc2)C1=O (single isomer, unassigned; isomer a) [Example 19-1, (−)-2-{(3S*,4R*)-3-[3-(4-Fluorophenyl)ureido]-4-(4-methoxyphenyl)-2-oxopyrrolidin-1-yl}-N-methylpropionamide (isomer A)]	0.21
